Laboratory results as given in patent US8986662B2, “Use of silane and siloxane bis(biphenyl) triazine derivatives as UV absorbers” (BASF SE, priority 2010, dated 2015).

What was measured:
Type in all cases: physicochemical
[1] = Measurement of photostability: irradiation of highly diluted ethanol solution, analysis by UV-spectroscopy; settings: first order kinetic model; diluted solution in ethanol; half-life under COLIPA standard sun irradiation
Method: The method used for assessment of photostability is based on the irradiation of a highly diluted solution of the UV-filter. The analysis after certain doses of irradiation was performed by UV-spectroscopy. The concentration of the UV-absorber in ethanol is adjusted to values between […], such that the absorbance of the solution in cuvette of 1 cm optical pathlength is equal or smaller than 0.2. The mutual protection of filter molecules can be excluded under such conditions.
Prior to irradiation of a sample the UVB-intensity at the sample position is measured with a UV-radiometer (RM-12, Dr. Grobel Electronic GmbH). […] Therefore the relationship of the reading of the RM-12 radiometer and the corresponding spectral output of the lamp is known, and one is able to determine the wavelength-resolved intensities by measuring the UVB-intensity. […]
For sample irradiation the highest possible intensity was used (4.5 mW/cm^2 UVB-intensity measured with the Macam 103 radiometer). […] After certain intervals of irradiation, the samples were analysed in a UV-spectrometer (Perkin Elmer, Lambda 16).
From the absorbance values at each dose of irradiation the concentration may be calculated using Lambert-Beer's law. […]

[2] = Measurement of solubility in Capric/Caprylic Triglyceride; settings: solvent Capric/Caprylic Triglyceride
[3] = UV spectrum in tetrahydrofurane (synthesis examples); settings: for ε: at λmax
[4] = UV shielding properties: UV spectra in ethanol
From the text: The UV shielding properties of the bisbiphenyl triazine derivatives were investigated by measuring their UV spectra in ethanol. In the following table the investigated absorption maxima (λmax) together with the corresponding A^1%1cm values are listed.

Half time [1] [h]	Solubility in Capric/Caprylic Triglyceride [2] [w-%]	λmax [3] [nm]	ε [3] [M⁻¹ cm⁻¹]	Absorption maximum λmax [4]	SMILES
412.1	22.8	319	76300	319	CC[Si](CC)(CC)CCCOc1ccc(-c2nc(-c3ccc(-c4ccccc4)cc3)nc(-c3ccc(-c4ccccc4)cc3)n2)c(O)c1 [S-2]
342.2		320	75800	320	CCO[Si](CCCOc1ccc(-c2nc(-c3ccc(-c4ccccc4)cc3)nc(-c3ccc(-c4ccccc4)cc3)n2)c(O)c1)(OCC)OCC [S-8]
